Assay: Pharmacokinetic study in Sprague Dawley rats, single oral dose, plasma LC/MS/MS
Format: in vivo
Conditions: suspension in 0.5% methylcellulose in water
Protocol: Pharmacokinetic studies were carried out in Sprague Dawley rats. Exemplary compounds were administered orally by gavage to groups of three rats using a single oral dose of 5 mg/kg. Each oral dose was prepared as a suspension in 0.5% methylcellulose in water. Blood samples were obtained serially from each rat at 0, 15, 30 min, and then 1, 2, 4, 8, and 24 hrs post dose.
Concentrations of an administered compound and the corresponding metabolite (Compound 1) in rat plasma were determined by a HPLC tandem mass spectrometric (LC/MS/MS) method. 50 μL Plasma PPT by ISTD in MeOH/Acetonitrile (1:1, v/v). 200 μL of 5 ng/mL Terfenadine and Buspirone was added to in MeOH/Acetonitrile (1:1, v/v) and mixed well. […]
Quantification of compounds were achieved by mass spectrometry using Multiple Reaction Monitoring (MRM) mode, monitoring the transitions specific to each exemplary compound and 447.34>405.20 for Compound 1. The quantification limit of the assay was 10 ng/mL for Compound 1.
Non-compartmental pharmacokinetic parameters were determined using a commercial program WinNonLin Professional, Version 8.0 (Pharsight, Mountain View, Calif.). […]
For oral administration, t½ (hr), tmax (hr), Cmax (ng/mL), AUClast (hr*ng/mL), AUCInf (hr*ng/mL), AUC Extr (%), MRTInf (hr), Cmax Ratio (Parent/Pro), AUClast Ratio (Parent/Pro) were determined.

| AUC(0-t) (rat, Compound 1, single oral dose of 5 mg/kg, read-out: AUC (AUClast)) [ng·h/mL] | AUC (AUClast) (compounds of Formula (B), single oral dose of 5 mg/kg) | Compound |
| --- | --- | --- |
| < 30000 | – | CCCn1c(=O)c2[nH]c(-c3cnn(Cc4cccc(C(F)(F)F)c4)c3)nc2n(CC)c1=O [Compound 1, 8-(1-(3-(Trifluoromethyl)benzyl)-1H-pyrazol-4-yl)-3-ethyl-1-propyl-1H-purine-2,6(3H,7H)-dione] |
| – | α or β | CCCC(=O)OCn1c(-c2cnn(Cc3cccc(C(F)(F)F)c3)c2)nc2c1c(=O)n(CCC)c(=O)n2CC [Compound E, (3-ethyl-2,6-dioxo-1-propyl-8-(1-(3-(trifluoromethyl)benzyl)-1H-pyrazol-4-yl)-1,2,3,6-tetrahydro-7H-purin-7-yl)methyl butyrate] |
